Laboratory results: patent US20050085546A1, “Method of inducing differentiation of dendritic cells” (Council of Scientific & Industrial Research, priority 2003, published 2005)

Experiments:
BM leukocyte precursors [1] = experiment: Differentiation of dendritic cells from bone marrow leukocyte precursors; cell surface marker expression by flow cytometry; format: cell-based, BALB/c mouse; details: for differentiation of dendritic cells (in words): from BM precursors
Experimental: Cells were stained for the surface levels of indicated markers. Plates A-D represent surface levels of CD80, CD54, CD11c and H-2D (MHC class 1), respectively. […] The Green line represents staining of stimulated cells while the black line depicts staining of unstimulated cells.
(§1) The fine suspension obtained above was transferred into a 50 ml sterile centrifuge tube and centrifuged for 10 minutes at 1200 rpm. […] The pellets were washed using HBSS wash buffer and then centrifuged again for 10 minutes at 1200 rpm. This process was repeated for one more time. […] This suspension was then finally passed through a MACS (Magnetic Activated Cell Sorting) column to get essentially and predominately leukocyte precursors.
In order to evaluate the upregulation of various cell surface markers associated with Dendritic cells, flow cytometry on the cells stimulated with GM-CSF or the compound was carried out using fluorescent labeled antibodies to various molecules (CD11c, I-A^d, CD80, CD86, H2-D^d, CD54, CD40).
The hind limbs of the mouse were removed carefully and placed in a Petri dish with HBSS (Hanks Balanced Saline Solution) wash buffer. The tibias and femurs were cleared of all surrounding and attached tissues. This was followed by chipping the ends of bones. The bone marrow was flushed out by injecting HBSS solution into the bone with the help of a hypodermal syringe (No. 26 gauge). The bone marrow was finally made into a fine suspension by syringing in and out of the fluid several times using an 18 gauge syringe needle.

BM leukocyte precursors [2] = experiment: Viability of stimulated BM leukocyte precursor cultures; format: cell-based, BALB/c mouse; set-up: Viability, % of Viable cells: reference not given here
Experimental: as §1

[3] = tested on: osteoclast precursors (murine bone marrow cells, M-CSF + RANKL); experiment: In vitro osteoclastogenesis assay (TRAP staining); format: cell-based, Balb/c mice; details: for % inhibition of osteoclast formation / Number of TRAP-positive multinuclear cells/well of 96 well plate (Mean ± SEM): 6 days
Source text: Culture of murine bone marrow cells in the presence of M-CSF and RANKL induces the formation of osteoclasts, which were detected as TRAP-positive cells. […] Values given are the mean±SD of five separate experiments.
For in vitro osteoclastogenesis bone marrow cells were isolated from 5- to 8-wk-old Balb/c mice. Mice were sacrificed by cervical dislocation and femora and tibiae were aseptically removed and dissected free of adherent soft tissues. The bone ends were cut, and the marrow cavity was flushed out with medium MEM from one end of the bone using a sterile 21-gauge needle. The bone marrow suspension was carefully agitated with a plastic Pasteur pipette to obtain a single-cell suspension. The cells were washed twice and resuspended (10^6 cells/ml) in aMEM containing 10% FBS. […] After 24 h, nonadherent cells were harvested and layered on a Ficoll-Hypaque gradient. Cells at the gradient interface were collected, washed and resuspended (5×10^5/ml) in AMEM containing 10% FBS. In this study, we called these stromal cell-free, M-CSF-dependent, nonadherent cells as osteoclast precursors. These osteoclast precursors were added to 96-well plates (100 μl/well) containing plastic coverslips. Each well received further 100 μl of medium containing M-CSF (30 ng/ml), RANKL (30 ng/ml) without or with various concentrations of purified compound. Cultures were fed every 2-3 days and after incubation for 6 days osteoclast formation was evaluated by tartrate-resistant acid phosphatase (TRAP) staining. The number of TRAP-positive multinucleated cells (MNCs) containing 3 or more nuclei was scored.
TRAP is preferentially expressed at high levels in osteoclast and is considered, especially in the mouse, to be an osteoclast marker. Cytochemical staining for TRAP is widely used for identifying the osteoclasts in vivo and in vitro. It is claimed to be specific for osteoclasts in bone. After incubation, cells on cover slips were washed in PBS, fixed in 10% formalin for 10 min and stained for acid phosphatase in the presence of 0.05 M sodium tartrate. The substrate used was napthol AS-BI phosphate. Only those cells that were strongly TRAP-positive (dark red) counted by light microscopy.

[4] = tested on: osteoclast precursors (murine bone marrow cells, M-CSF + RANKL); experiment: In vitro osteoclastogenesis assay (TRAP staining); format: cell-based, Balb/c mice; details: M-CSF + RANKL + compound 5.0 μg/ml, 6 days
[5] = Table A, 15 ng/ml GM-CSF or 50 micro gram per ml synthetic compound, 48 h
[6] = Table B, concentration not given
[7] = M-CSF + RANKL + compound 0.5 μg/ml
[8] = M-CSF + RANKL + compound 1.5 μg/ml
[9] = M-CSF + RANKL + compound 3.0 μg/ml
[10] = M-CSF + RANKL + compound 5.0 μg/ml

Question: “GM-CSF: the growth factor that is conventionally used to generate DCs in vitro” was tested. Which “Fold increase in Relative MFI over unstimulated control, CD11c” value (BM leukocyte precursors [1]; [5]) did it give?
Answer: 5.0 fold

Question: What about the “Fold increase in Relative MFI over unstimulated control, CD54” value (BM leukocyte precursors [1]; [5]) of the same molecule?
Answer: 4.0 fold

Question: And the “Fold increase in Relative MFI over unstimulated control, CD80” value (BM leukocyte precursors [1]; [5])?
Answer: 3.3 fold

Question: And the “Fold increase in Relative MFI over unstimulated control, H-2D^d” value (BM leukocyte precursors [1]; [5])?
Answer: 2.0 fold

Question: And the “Fold increase in Relative MFI over unstimulated control, CD11c” value (BM leukocyte precursors [1]; [6])?
Answer: 5.0 fold

Question: What about the “Fold increase in Relative MFI over unstimulated control, CD54” value (BM leukocyte precursors [1]; [6]) of the same molecule?
Answer: 4.0 fold

Question: And the “Fold increase in Relative MFI over unstimulated control, CD80” value (BM leukocyte precursors [1]; [6])?
Answer: 3.3 fold

Question: What about the “Fold increase in Relative MFI over unstimulated control, H-2D^d” value (BM leukocyte precursors [1]; [6]) of the same molecule?
Answer: 2.0 fold

Question: And the “Viability, % of Viable cells” value (BM leukocyte precursors [2]; [5])?
Answer: 180%

Question: What about the “Viability, % of Viable cells” value (BM leukocyte precursors [2]; [6]) of the same molecule?
Answer: 180%

Question: What does the source list for `O=C([O-])CC[C@H](NS(=O)(=O)[O-])C(=O)[O-].O=C([O-])CC[C@H](NS(=O)(=O)[O-])C(=O)[O-].[Ca+2].[Ca+2].[Ca+2]` [compound 1, L-glutamyl-N-sulphonic acid, Ca salt]?
Answer: concentration of maximum up regulation of cell surface densities of CD11c, CD80, CD54 (BM leukocyte precursors [1]; BM leukocyte precursors incubated with different concentrations): 200 mM; differentiation of dendritic cells (in words) (BM leukocyte precursors [1]; listed as Compound I): Induces Differentiation of Dendritic Cells; differentiation of dendritic cells (in words) (BM leukocyte precursors [1]; listed as the compound): induces the differentiation of DCs from BM precursors; viability of the cultures at the end of the incubation period (BM leukocyte precursors [2]; 200 mM, 48 h): more than 99%; viability of the cultures at the end of the incubation period (BM leukocyte precursors [2]; 50 micro gram per ml, 48 h): > 99%; % inhibition of osteoclast formation [3, 7]: 21.01%; Number of TRAP-positive multinuclear cells/well of 96 well plate (Mean ± SEM) [3, 7]: 109.67 ± 9.79 cells/well; % inhibition of osteoclast formation [3, 8]: 62.19%; Number of TRAP-positive multinuclear cells/well of 96 well plate (Mean ± SEM) [3, 8]: 52.17 ± 6.42 cells/well; % inhibition of osteoclast formation [3, 9]: 89.36%; Number of TRAP-positive multinuclear cells/well of 96 well plate (Mean ± SEM) [3, 9]: 14.67 ± 1.98 cells/well; % inhibition of osteoclast formation [3, 10]: 97.94%; inhibition in the number of osteoclast cells generated (in words) ([3]; increasing dose): dose dependent inhibition; Number of TRAP-positive multinuclear cells/well of 96 well plate (Mean ± SEM) [4]: 2.83 ± 1.05 cells/well

Question: Which results are given for `O=C(O)CC[C@H](NS(=O)(=O)O)C(=O)O` [compound 3, L-glutamyl-N-sulphonic acid]?
Answer: Viability, % of Viable cells (BM leukocyte precursors [2]; [6]): 115%; Number of TRAP-positive multinuclear cells/well of 96 well plate (Mean ± SEM) [3, 7]: 154.67 ± 8.43 cells/well; Number of TRAP-positive multinuclear cells/well of 96 well plate (Mean ± SEM) [3, 8]: 150.33 ± 8.82 cells/well; % inhibition of osteoclast formation [3, 9]: 23.23%; Number of TRAP-positive multinuclear cells/well of 96 well plate (Mean ± SEM) [3, 9]: 112.67 ± 8.63 cells/well; % inhibition of osteoclast formation [3, 10]: 25.08%; Number of TRAP-positive multinuclear cells/well of 96 well plate (Mean ± SEM) [4]: 110.00 ± 6.72 cells/well
